By pIC50 is commonly meant the IC50 on a negative log10 scale, so that one unit is a factor of ten.

Each structure is given as a SMILES string. pIC50: −log10 of the molar value. Activity calls are given as the source filed them. The calls are words filed in the database; no cut-off is given here.

Series [1] relates to HepG2. The experiment in a line: Effect on NTCP surface expression in human HepG2-NTCP cells assessed as reduction in NTCP surface expression level after 2 hrs by immunostaining based assay. Format: functional, cell-based.
Series [2] relates to Hepatitis B virus. The experiment in a line: Antiviral activity against HBV infected in human HepG2-NTCP cells assessed as reduction in HBeAg secretion at 1 uM compound added along with viral infection by ELISA. The class given is functional, organism-based. On the technique in general: In an ELISA, binding on a coated surface is turned into a signal by an enzyme label.
Series [3] has as its target T1, Hepatic sodium/bile acid cotransporter (Homo sapiens, UniProt Q14973).
T1 sequence (Q14973 whole entry): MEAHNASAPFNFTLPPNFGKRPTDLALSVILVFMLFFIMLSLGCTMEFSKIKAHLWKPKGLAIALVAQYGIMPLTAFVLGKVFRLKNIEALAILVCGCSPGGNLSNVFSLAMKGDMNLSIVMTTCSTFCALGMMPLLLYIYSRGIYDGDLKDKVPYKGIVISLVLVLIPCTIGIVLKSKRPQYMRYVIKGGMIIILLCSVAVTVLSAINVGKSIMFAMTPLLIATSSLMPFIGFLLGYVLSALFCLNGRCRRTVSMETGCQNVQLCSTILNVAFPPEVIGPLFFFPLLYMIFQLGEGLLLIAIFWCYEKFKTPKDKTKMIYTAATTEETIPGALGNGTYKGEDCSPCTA
Kind of series: Inhibition of human NTCP-mediated [3H]-TCA uptake expressed in human HepG2 cells at 2 uM. The class given is cell-based. To be noted: hepg2, 2 µM.

The target in series [4] is T1, Hepatic sodium/bile acid cotransporter. Kind of series: Inhibition of human NTCP-mediated NQL-064 uptake expressed in human HepG2 cells. Format: cell-based.
Series [5] has as its target T2, Hepatic sodium/bile acid cotransporter (Mus musculus, UniProt O08705).
T2 sequence (O08705 whole entry): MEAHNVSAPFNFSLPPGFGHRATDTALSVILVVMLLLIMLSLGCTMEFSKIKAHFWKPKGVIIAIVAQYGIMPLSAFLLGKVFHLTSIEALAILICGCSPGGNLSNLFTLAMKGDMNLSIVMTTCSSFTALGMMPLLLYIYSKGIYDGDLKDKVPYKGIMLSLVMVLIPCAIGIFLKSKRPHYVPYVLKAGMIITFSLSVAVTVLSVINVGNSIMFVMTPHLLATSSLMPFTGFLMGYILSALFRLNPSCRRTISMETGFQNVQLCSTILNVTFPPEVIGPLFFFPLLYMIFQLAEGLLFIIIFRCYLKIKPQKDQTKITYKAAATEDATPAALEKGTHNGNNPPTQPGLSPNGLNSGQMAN
Kind of series: Inhibition of mouse NTCP-mediated NQL-064 uptake expressed in human HepG2 cells. The class given is cell-based.

The subject of series [6] is HepG2. The experiment in a line: Inhibition of monkey NTCP-mediated NQL-064 uptake expressed in human HepG2 cells. The class given is cell-based. To be noted: Macaca mulatta.
Series [7] can be described thus: Inhibition of monkey NTCP-mediated [3H]-TCA uptake expressed in human HepG2 cells. Format: cell-based. The note with it: Macaca mulatta.
Series [8] has as its system HepG2. The experiment in a line: Inhibition of tree shrew NTCP-mediated NQ-064 uptake expressed in human HepG2 cells. The note with it: Scandentia. The class given is cell-based.
In series [9] the target is T3, Ileal sodium/bile acid cotransporter (Homo sapiens, UniProt Q12908).
T3 sequence (Q12908 whole entry): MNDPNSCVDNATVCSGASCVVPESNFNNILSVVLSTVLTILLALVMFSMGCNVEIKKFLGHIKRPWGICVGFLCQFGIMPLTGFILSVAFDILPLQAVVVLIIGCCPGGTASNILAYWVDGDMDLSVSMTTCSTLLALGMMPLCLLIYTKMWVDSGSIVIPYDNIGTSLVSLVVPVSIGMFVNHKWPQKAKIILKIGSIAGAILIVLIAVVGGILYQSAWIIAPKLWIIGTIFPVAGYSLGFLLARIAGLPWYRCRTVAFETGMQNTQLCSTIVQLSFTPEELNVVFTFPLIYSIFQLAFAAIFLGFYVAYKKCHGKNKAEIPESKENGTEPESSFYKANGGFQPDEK
The experiment in a line: Inhibition of human ASBT-mediated [3H]-TCA uptake expressed in human HepG2 cells at 2 uM. The note with it: hepg2, 2 µM. The class given is cell-based.

In series [10] the target is T1, Hepatic sodium/bile acid cotransporter. Kind of series: Inhibition of human NTCP-mediated NQL-065 uptake expressed in human HepG2 cells incubated for 30 mins. Format: cell-based. To be noted: hepg2, 0.5 h.
For series [11], the target named is Hepatic sodium/bile acid cotransporter (Homo sapiens, UniProt Q14973). The experiment in a line: Inhibition of human NTCP residues (157 to 165) replaced with monkey NTCP -mediated [3H]-TCA uptake expressed in human HepG2 cells. Format: cell-based.
For a further series, the system named is Hepatocyte. The experiment in a line: Cytotoxicity against primary tupaia hepatocytes expressing NTCP assessed as reduction in cell viability at 100 uM after 48 hrs by Cell-Titer Glo assay. The class given is cell-based. The note with it: scandentia.
For series [12], the system named is Hepatitis B virus. The experiment in a line: Antiviral activity against HBV infected in human HepG2-NTCP cells assessed as reduction in HBeAg secretion at 31.25 to 2000 nM incubated for 24 hrs followed by replacement with fresh medium and measured at day 5 post infection by ELISA. Format: functional, organism-based. To be noted: dose 31.25-2000 nM.
For series [13], the target named is T1, Hepatic sodium/bile acid cotransporter. The experiment in a line: Inhibition of human NTCP-mediated [3H]-TCA uptake expressed in human HepG2 cells at 0.4 to 10 uM incubated for 10 mins by liquid scintillation counter analysis. Format: cell-based. To be noted: hepg2, 10 min, dose 0.4-10 µM.
For series [14] the target is unchanged. The experiment in a line: Inhibition of human NTCP-mediated [3H]-TCA uptake expressed in human HepG2 cells pretreated for 2 hrs followed by [3H]-TCA addition in absence of FBS. The class given is cell-based.

With `C[C@H](CCC(=O)NCCS(=O)(=O)O)[C@H]1CC[C@H]2[C@@H]3[C@@H](O)C[C@@H]4C[C@H](NC(=O)CCCC(=O)N[C@@H]5CC[C@@]6(C)[C@@H](C5)C[C@H](O)[C@@H]5[C@@H]6CC[C@]6(C)[C@@H]([C@H](C)CCC(=O)NCCS(=O)(=O)O)CC[C@@H]56)CC[C@]4(C)[C@H]3CC[C@]12C`, the result in the series with HepG2 [1] was inactive. In addition, the outcome with Hepatitis B virus [2] was Active. Also, the “inhibition (INH)” value is given as “Active” in [3]; “Active” in series [4]; “Not Active” in [5]; “Not Active” in series [9]; “Active” in [10]. Moreover, the inhibition result in the series with HepG2 [6] and in the series with HepG2 [8] was “inactive” in each case. In addition, the pIC50 was 5.32 in [7] and 5.08 in series [11]. In the series with Hepatocyte, the Activity result is listed as “Non-Toxic”.
`C[C@H](CCC(=O)O[C@@H]1CC[C@@]2(C)[C@@H](C1)C[C@H](O)[C@@H]1[C@@H]2CC[C@]2(C)[C@@H]([C@H](C)CCC(=O)NCCS(=O)(=O)O)CC[C@@H]12)[C@H]1CC[C@H]2[C@@H]3[C@@H](O)C[C@@H]4C[C@H](O)CC[C@]4(C)[C@H]3CC[C@]12C`: the outcome in the series on HepG2 [1] was inactive. The outcome with Hepatitis B virus [2] and with Hepatitis B virus [12] was Active. In addition, the “inhibition (INH)” value in series [3] is listed as “Active”; in series [9] it was “Not Active”; in series [10] it was “Active”; in [13], “Active”. Besides, the pIC50 in series [14] is 7.44. Moreover, the Activity entry in the series on Hepatocyte is “Non-Toxic”.

These data come from ChEMBL document CHEMBL4834431, “Design of Dimeric Bile Acid Derivatives as Potent and Selective Human NTCP Inhibitors” (J Med Chem, 2021).
